# Where a name gives a salt, the structure may show the parent alone.
# How the values were obtained:
# [1] = system: ulcer induced by phenylbutazone; assay: Anti-ulcerous activity, ulcer from phenylbutazone (9-keto sodium salt); assay type: in vivo, Female rats of the Wistar stock
# Protocol: The anti-ulcerous activity of the compound in question is tested on an ulcer induced by aspirin and on an ulcer induced by phenyl butazone. In both models the mucous lesions are localized in the glandular section of the stomach. Female rats of the Wistar stock weighing 140-170 g are involved. 24 hours before the start of the test the rats are made to fast, while they are allowed water at will. Each test group consists of 12 animals. For the formation of the ulcer, 200 mg of phenylbutazone/kg in 2 ml of 0.5% gum arabic are administered to the animals orally. 10 minutes before administration of phenylbutazone, and 21/2 hours afterwards, substance in question is administered orally (in 0.5% gum arabic solution) or intravenously (in 0.9% sodium chloride solution) in variable doses (see table). The animals are killed 5 hours after administration of phenylbutazone, the stomachs are prepared and examined under a stereomicroscope, to evaluate the number and size of the lesions.
# [2] = system: ulcer induced by aspirin; assay: Anti-ulcerous activity, ulcer from aspirin (9-keto sodium salt); assay type: in vivo, Female rats of the Wistar stock
# Protocol: The anti-ulcerous activity of the compound in question is tested on an ulcer induced by aspirin and on an ulcer induced by phenyl butazone. In both models the mucous lesions are localized in the glandular section of the stomach.
# Female rats of the Wistar stock weighing 150-175 g were selected. 24 hours before the start of the test the animals were made to fast, allowing water at will.
# Each test group consists of 12 animals. The aspirin is administered orally in the form of a suspension (45 mg in ml of 0.5% carboxymethylcellulose for each animal). The application of the sodium salt in question takes place either intravenously (2 × 5 mg or 1 × 50 mg of substance/kg in 2 ml of 0.9% sodium chloride solution) or orally (2 × 10 mg or 2 × 100 mg of substance/kg in 2 ml of 0.5% carboxymethylcellulose suspension). The first dose is administered 10 minutes before application of the aspirin, and the second dose two and a half hours afterwards. […] The animals are killed 5 hours after application of the aspirin, the stomachs are prepared, and the number and size of the lesions is evaluated with a stereomicroscope.
# [3] = LD50 by mouth in the mouse; assay type: in vivo; conditions: in vivo, po
# Protocol: a. LD50 by mouth in the mouse about 3000 mg/kg
# 25 gr of XVI are dissolved in 400 ml of water with NaOH 15% to pH 9, filtered and lyophilized : 24 gr of sodium salt of XVI as a white solid are obtained, humidity (K. Fisher) 2.08%, no U.V. absorption, equivalent weight found 301.7, I.R. bands at 3400, 1765, 1565, 1460, 1420, 1378 cm^-1.
# After 20 hours at 20°, the solvent is evaporated in vacuo, the residue is dissolved in 1300 ml of water treated with 120 ml of acetic acid, extracted with chloroform. After solvent evaporation, 65.1 gr of the compound XVIII are obtained, as an oil, I.R. bands at 3420, 3100, 1710 cm^-1. 35 gr of the compound XVIII are dissolved in 600 ml of water with NaOH to pH 9. The solution is filtered and lyophilized: 35.5 gr of sodium salt of 9-hydroxy-19,20-bis-nor-prostanoic acid are obtained, as white solid, humidity (K.Fisher) 1.73%, no U.V. absorption, equivalent weight found 320, I.R. bands at 3400, 3300, 1565, 1460, 1390 cm^-1, LD50 by mouth in mice about 3000 mg/kg.
# [4] = Triglyceridemia and cholesterolemia in rats given alcohol 10%; assay type: in vivo, Male Sprague-Dawley rats; conditions: 1 week endoperitoneal once daily (CPIB, BBA 200 mg/kg; C83 50 mg/kg); for Cholesterolemia: controls 91.5 ± 6.6, alcohol 81.0 ± 4.6; for Triglyceridemia: controls 97.8 ± 5.1, alcohol 169.0 ± 25.0
# Protocol: | Treatment for 1 week CPIB - BBA - 200 mg/kg endoperitoneal; C83 | 50mg/kg endoperitoneal; only one daily administration. | Male Sprague-Dawley rats 150 gr. | Groups of 6 rats.
# [5] = Deepness and rapidity test (untitled table 6); assay type: in vivo, Male Sprague-Dawley rats; conditions: 200 mg/kg endoperitoneal; for Rapidity ± E.S.: controls 3.4 ± 0.3; for Deepness (mm ± E.S.): controls 74.9 ± 6.2
# Protocol: | Treatment with the dose of 200 mg/kg endoperitoneal, one or two hours | before sacrifice. Male Sprague-Dawley rats with an average weight of 150 | gr.
compound,measurement,setting,value
"CCCCCCC1=C(CCCCCCC(=O)O)C(=O)CC1 [9-keto-19,20-bis-nor-8(12)-prostenoic acid, sodium salt]",inhibition at 50 mg/kg,"[1]; Rattus norvegicus, iv, 1 × 50 mg/kg",42.5%
same,inhibition at 5 mg/kg,"[1]; Rattus norvegicus, iv, 2 × 5 mg/kg",83.1%
same,inhibition at 10 mg/kg,"[1]; Rattus norvegicus, po, 2 × 10 mg/kg",54.9%
same,inhibition at 100 mg/kg,"[1]; Rattus norvegicus, po, 2 × 100 mg/kg",80.2%
same,Ulcer scale (x ± Sx),"[1]; i.v., 1 × 50 mg/kg, controls 11.17 ± 2.77",6.42 ± 3.41
same,Ulcer scale (x ± Sx),"[1]; i.v., 2 × 5 mg/kg, controls 11.17 ± 2.77, p<0.05",3.00 ± 0.92
same,inhibition of ulcerating effect of phenylbutazone (in words),[1]; orally,can inhibit the ulcerating effect of phenylbutazone depending on the doses (orally)
same,Ulcer scale (x ± Sx),"[1]; p.o., 2 × 10 mg/kg, controls 9.25 ± 1.81, p<0.05",4.17 ± 0.91
same,Ulcer scale (x ± Sx),"[1]; p.o., 2 × 100 mg/kg, controls 9.25 ± 1.81, p<0.01",1.83 ± 0.69
same,Ulcer scale (x ± Sx),"[2]; i.v., 1 × 50 mg/kg, p<0.01",5.08 ± 2.38
same,Ulcer scale (x ± Sx),"[2]; i.v., 2 × 5 mg/kg",11.80 ± 5.1
same,inhibition of ulcerating effect of aspirin (in words),[2]; oral and intravenous,"inhibits considerably the ulcerating effect of the aspirin in both oral doses, and in the higher doses in the case of intravenous application"
same,Ulcer scale (x ± Sx),"[2]; p.o., 2 × 10 mg/kg, controls 17.95 ± 2.98, p<0.05",9.25 ± 2.11
same,Ulcer scale (x ± Sx),"[2]; p.o., 2 × 100 mg/kg, controls 17.95 ± 2.98, p<0.01",5.83 ± 2.11
"CCCCCCC12CCC(O)C1(CCCCCCC(=O)O)O2 (centres unmarked) [sodium salt of XVI, 9-hydroxy-8(12)-epoxy-19,20-bis-nor prostanoic acid]",LD50,[3],~1500 mg/kg
"CCOC(=O)C(C)(C)Oc1ccc(Cl)cc1 [CPIB, clofibrate]",Cholesterolemia,[4],59.7 ± 2.9
same,Triglyceridemia,[4],151.2 ± 10.4
"CC(=O)Oc1ccccc1C(=O)O [aspirin, reference compound]",Rapidity ± E.S.,[5]; 1 hour before sacrifice,1.2 ± 0.1
same,Deepness (mm ± E.S.),[5]; 1 hour before sacrifice,17.7 ± 2.4 mm
same,Rapidity ± E.S.,[5]; 2 hours before sacrifice,2.5 ± 0.2
same,Deepness (mm ± E.S.),[5]; 2 hours before sacrifice,48.4 ± 4.4 mm
"CC(=Cc1ccccc1)CC(=O)O [BBA, β-benzalbutyric acid]",Cholesterolemia,[4],66.5 ± 1.6
same,Triglyceridemia,[4],143.4 ± 17.8

# From patent US4073938A, “19,20-Bis-nor-prostenoic acids as hypolipemic compounds” (Istituto Biochimico Italiano di Loredana Lorenzini S.a.s., priority 1974, dated 1978)
